Data taken from patent US9333268B2, “Methods of treatment with arginine deiminase” (Polaris Group, priority 2012, dated 2016).
Where a name gives a salt, the structure may show the parent alone.

Experiments:
SK-LC-13 cells = assay: FACS analysis of apoptosis by sub-G1 DNA content (propidium iodide); type: cell-based, human; settings: 25 nM, 72 h
Description: Apoptosis was measured by FACS of propidium-iodide-stained cells as detailed by Riccardi et al (Riccardi and Nicoletti, Nat Protoc 1(3):1458-1461, 2006). Cells were plated in 24-well plates and treated with ADI-PEG 20 for […]. Cells were then harvested, washed and fixed in 70% ethanol. DNA was then stained using 20 μg ml^−1 propidium iodide containing 10 μgml^−1 DNAse-free RNAse A (Sigma-Aldrich). Cells were then read on a BD FACSCalibur (BD Biosciences) and analyzed using Flow Jo Software (Tree Star, Ashland, Oreg., USA).
In order to determine the possible mechanism of the antiproliferative effects of ADI-PEG 20 a FACS analysis of apoptosis by sub-G1 DNA content was performed. Cells were treated for 72 h before the analysis was performed.

[1] = tested on: human pancreatic cancer cell line MIA-PaCa2; assay: Western blot/ELISA of caspase 3 cleavage, LC3 and p62; type: cell-based; settings: ChQ 5 μM added to ADI-PEG 0.3 μg/mL, 72 hours
Description: The human pancreatic cancer cell line MIA-PaCa2 was treated in vitro and in vivo with pegylated arginine deiminase (ADI-PEG) alone or in the presence of ChQ. Cell death was measured by propidium iodide (PI)-FACS to determine sub-G1 DNA content, and apoptosis was evaluated by Annexin V-PI flow cytometry. Cleavage of caspase 3 was evaluated by western blots and ELISA. Autophagy was measured by evaluating the expression levels of LC3 and […] p62 (p62) by western blots and ELISA.
In order to determine if ADI induces apoptosis and autophagy in a caspase dependent manner, cells were incubated with either ADI-PEG or a combination of ADI-PEG and ZVAD-fmk, a pan-caspase inhibitor.
The levels of p62, LC3B-I, and LC3B-II were measured by western blot analysis in order to examine autophagic flux.

SK-LC-13 = assay: Western blot of autophagy-related protein LC3-II; type: cell-based, human; settings: 24 hour incubation
Excerpt: Following washing, the membranes were then probed with the appropriate secondary antibody before proteins were finally visualized using ECL reagent (Perkin-Elmer, Fremont Calif., USA).
An assay for the formation of the autophagy-related protein LC3-II assessed if treatment with ADI-PEG 20 was able to induce cellular autophagy in SCLC. […] Chloroquine is a known inhibitor of autophagy that disrupts normal lysosomal functions, and thus results in an increase in the cellular level of LC3-II.

**Q.** With `CC[C@@]1(O)C(=O)OCc2c1cc1n(c2=O)Cc2cc3c(CN(C)C)c(O)ccc3nc2-1` [topotecan, Topotecan hydrochloride, reference compound] as the compound, how does the “cells in apoptosis (sub-G1 DNA content)” value (SK-LC-13 cells) read?
**A.** around 45%

**Q.** `CCN(CCO)CCCC(C)Nc1ccnc2cc(Cl)ccc12` (stereo not drawn) [ChQ, hydroxychloroquine] was tested. Which ADI induced apoptosis [1] did it give?
**A.** enhanced ADI induced apoptosis

**Q.** And the “LC3B-I and LC3B-II” value [1]?
**A.** increase in the build up of both LC3B-I and LC3B-II

**Q.** What about the autophagic flux [1] of the same compound?
**A.** diminished autophagic flux

**Q.** What about the “level of p62” value [1] of the same compound?
**A.** increase in the level of p62

**Q.** With `CCN(CC)CCCC(C)Nc1ccnc2cc(Cl)ccc12` (stereo not drawn) [chloroquine, reference compound] as the compound, how does the “cellular level of LC3-II” value (SK-LC-13) read?
**A.** very robust expression of LC3-II
